Reference: patent US20230304010A1, “COMPOSITIONS AND METHODS FOR TREATING VIRAL INFECTIONS” (priority 2020, published 2023)
Where two headings read alike, the source gives them in different places.

Legend:
[1] = tested on: SARS-CoV-2 variants (Alpha/Beta/Delta); type: cell-based
[2] = tested on: ACE2 : SARS-CoV-2 Spike Beta (B1.351/South Africa) variant; type: binding; settings: read-out: IC50, Beta (B1312)
[3] = tested on: ACE2 : SARS-CoV-2 Spike Delta (B1 617 2/India) variant; type: binding; settings: read-out: IC50, Delta (B1617)
[4] = tested on: ACE2 : SARS-CoV-2 Spike Alpha (B1.1.7/United Kingdom) variant; type: binding; settings: read-out: IC50, Alpha (B117)
[5] = tested on: ACE2 : SARS-CoV-2 Spike Epsilon (B1429) variant; type: binding
[6] = tested on: ACE2 : SARS-CoV-2 Spike Gamma (P1/Brazil) variant; type: binding

CC(=O)N[C@@H](CCC(=O)O)C(=O)N[C@@H](CCC(N)=O)C(=O)N[C@@H](C)C(=O)N[C@@H](CCCCN)C(=O)N[C@H](C(=O)N[C@@H](Cc1ccccc1)C(=O)N[C@@H](CC(C)C)C(=O)N[C@@H](CC(=O)O)C(=O)N[C@@H](CCCCN)C(=O)N[C@@H](Cc1ccccc1)C(=O)N[C@@H](CC(N)=O)C(=O)N[C@@H](Cc1c[nH]cn1)C(=O)N[C@@H](CCC(=O)O)C(=O)N[C@@H](C)C(=O)N[C@@H](CCC(=O)O)C(=O)N[C@@H](CC(=O)O)C(=O)N[C@@H](CC(C)C)C(=O)N[C@@H](Cc1ccccc1)C(=O)NCCCCCC(=O)N[C@@H](CC(C)C)C(=O)N[C@@H](Cc1c[nH]c2ccccc12)C(=O)N[C@@H](CCCNC(=N)N)C(=O)N[C@@H](C)C(=O)N[C@@H](CC(C)C)C(=O)N[C@@H](Cc1c[nH]c2ccccc12)C(=O)N[C@@H](CCCNC(=N)N)C(=O)N[C@@H](CC(C)C)C(=O)N[C@@H](Cc1c[nH]c2ccccc12)C(=O)N[C@@H](CCCNC(=N)N)C(=O)N[C@@H](CO)C(=O)N[C@@H](CC(C)C)C(=O)N[C@@H](Cc1c[nH]c2ccccc12)C(=O)N[C@@H](CCCNC(=N)N)C(=O)N[C@@H](CC(C)C)C(=O)N[C@@H](CC(C)C)C(=O)N[C@@H](Cc1c[nH]c2ccccc12)C(=O)N[C@@H](CCCCN)C(N)=O)[C@@H](C)O [Seq33]
fold stronger anti-SARS-CoV-2 activity than Remdesivir [1]: 200 fold
IC50 [2]: 28.8 ± 10 nM
IC50 [3]: 25.7 ± 8 nM
IC50 [4]: 17.8 ± 9 nM
IC50 [5]: 31.4 ± 9 nM
IC50 [6]: 20.2 ± 5 nM

Ac-N*GVEGFNK*Ava-LWRALWRLWRSLWRLLWK-NH2 [Seq17]
IC50 (SARS-CoV-2 Delta variant; read-out: Delta (B1617) IC50): 25.7 ± 10 nM
IC50 (SARS-CoV-2 Delta variant; read-out: IC50, Delta (B1617)): 25.7 ± 10 nM
IC50 [2]: 75.2 ± 21 nM
IC50 [3]: 48.2 ± 11 nM
IC50 [4]: 136 ± 21 nM
IC50 [5]: 94.7 ± 17 nM
IC50 (SARS-CoV-2 Alpha variant; read-out: Alpha (B117) IC50): 125 ± 24 nM
IC50 (SARS-CoV-2 Alpha variant; read-out: IC50, Alpha (B117)): 125 ± 24 nM
IC50 [6]: 87.2 ± 20 nM
IC50 (SARS-CoV-2 Beta variant; read-out: Beta (B1312) IC50): 118 ± 15 nM
IC50 (SARS-CoV-2 Beta variant; read-out: IC50, Beta (B1312)): 118 ± 15 nM

GGCCAAACTGTCACTAAGAAA (chemistry not given here) [DIVC-6]
IC50 (SARS-CoV-2 Delta variant; read-out: Delta (B1617) IC50): 91.3 nM
inhibitory activity against all SARS-CoV2 variant viruses [1]: potent inhibitory activity
IC50 (SARS-CoV-2 Alpha variant; read-out: Alpha (B117) IC50): 84.5 nM
IC50 (SARS-CoV-2 Beta variant; read-out: Beta (B1312) IC50): 58.5 nM
